Measured values taken from the supplement of paper PMC10307832.

Experiments:
Assay in all cases: relative viability (nuclei count vs DMSO), 5 days (fraction); higher = more cells survive
[1] = compound: COc1cc(-c2nn([C@H]3CC[C@H](N4CCN(C(C)=O)CC4)CC3)c3ncnc(N)c23)ccc1NC(=O)c1cc2ccccc2n1C + CC(=O)Nc1cccc(-n2c(=O)n(C3CC3)c(=O)c3c(Nc4ccc(I)cc4F)n(C)c(=O)c(C)c32)c1 [Trametinib] (partner 0.02 µM)
Outline: (§1)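 Relative viability is defined as nuclei in treated wells over nuclei in vehicle wells. Duplicate plates were run and medians reported. Lung cancer cell lines in 1536-well plates were dosed by pin tool one day after seeding, with one drug or with a fixed anchor-drug dose plus five library-drug doses (not always all listed) in √10 steps, and nuclei were counted after 5 days.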

[2] = compound: COc1cc(-c2nn([C@H]3CC[C@H](N4CCN(C(C)=O)CC4)CC3)c3ncnc(N)c23)ccc1NC(=O)c1cc2ccccc2n1C + Nc1nc2[nH]cc(CCc3ccc(C(=O)N[C@@H](CCC(=O)O)C(=O)O)cc3)c2c(=O)[nH]1 [Pemetrexed] (partner 0.2 µM)
Outline: as §1

[3] = compound: CO[C@@H]1[C@H](N(C)C(=O)c2ccccc2)C[C@H]2O[C@]1(C)n1c3ccccc3c3c4c(c5c6ccccc6n2c5c31)C(=O)NC4 [Midostaurin] + COc1cc2c(Oc3ccc(NC(=O)C4(C(=O)Nc5ccc(F)cc5)CC4)cc3F)ccnc2cc1OCCCN1CCOCC1 [Foretinib] (partner 0.25 µM)
Outline: as §1

[4] = compound: CO[C@@H]1[C@H](N(C)C(=O)c2ccccc2)C[C@H]2O[C@]1(C)n1c3ccccc3c3c4c(c5c6ccccc6n2c5c31)C(=O)NC4 [Midostaurin] + C[C@@H](Oc1cc(-c2cnn(C3CCNCC3)c2)cnc1N)c1c(Cl)ccc(F)c1Cl [Crizotinib] (partner 1 µM)
Outline: as §1

[5] = compound: COc1cc(-c2nn([C@H]3CC[C@H](N4CCN(C(C)=O)CC4)CC3)c3ncnc(N)c23)ccc1NC(=O)c1cc2ccccc2n1C + CS(=O)(=O)N1CCN(Cc2cc3nc(-c4cccc5[nH]ncc45)nc(N4CCOCC4)c3s2)CC1 [Pictilisib] (partner 1 µM)
Outline: as §1

Cell Line	relative viability ([1]; first compound 0.0128 µM)	relative viability ([1]; first compound 0.04048 µM)	relative viability ([1]; first compound 0.128 µM)	relative viability ([1]; first compound 1.28 µM)	relative viability ([2]; first compound 0.0128 µM)	relative viability ([2]; first compound 0.04048 µM)	relative viability ([2]; first compound 0.128 µM)	relative viability ([2]; first compound 1.28 µM)	relative viability ([3]; first compound 0.01 µM)	relative viability ([3]; first compound 0.03162 µM)	relative viability ([3]; first compound 0.1 µM)	relative viability ([3]; first compound 0.3162 µM)	relative viability ([4]; first compound 0.01 µM)	relative viability ([4]; first compound 0.03162 µM)	relative viability ([4]; first compound 0.1 µM)	relative viability ([4]; first compound 0.3162 µM)	relative viability ([5]; first compound 0.0128 µM)	relative viability ([5]; first compound 0.04048 µM)	relative viability ([5]; first compound 0.128 µM)	relative viability ([5]; first compound 1.28 µM)
NCI-H2342	0.92	0.766	0.886	0.745	0.762	0.821	0.781	0.771	1.03	0.933	0.961	0.92	–	–	–	–	–	–	–	–
HCC-15	0.421	0.269	0.394	0.294	0.227	0.228	0.198	0.225	1.08	0.856	1.04	1.05	0.842	0.829	0.841	0.847	0.854	0.369	0.657	0.647
A-427	0.82	0.462	0.759	0.711	0.972	1.07	0.906	0.93	1.06	1.08	0.903	1.03	0.949	0.794	0.735	0.707	0.652	0.127	0.703	0.493
NCI-H2228	0.448	0.146	0.539	0.377	0.362	0.348	0.31	0.322	0.922	0.85	1.08	0.905	0.662	0.434	0.361	0.509	0.408	0.275	0.337	0.375
NCI-H1734	0.721	0.445	0.664	0.598	0.432	0.391	0.406	0.432	0.878	0.739	0.866	0.679	0.653	0.691	0.705	0.647	0.47	0.38	0.481	0.362
PC-14	0.819	0.721	0.663	0.569	0.136	0.118	0.136	0.133	0.984	0.924	0.909	0.899	0.903	0.882	0.832	0.907	0.744	0.792	0.664	0.625
NCI-H1915	0.333	0.141	0.301	0.241	0.536	0.452	0.488	0.5	1.1	0.993	1.04	1.09	0.889	0.889	0.979	0.94	0.968	0.532	0.939	0.879
NCI-H1666	0.899	0.835	0.819	0.918	0.881	0.803	0.84	0.847	0.881	0.954	0.786	0.754	0.874	1.12	0.858	0.787	0.521	0.367	0.394	0.397
